# Source: the NIST ThermoML archive (doi:10.1021/je101316g)
# Numbers after ± are expanded uncertainties.
# Details: 313.15 K; 101.33 kPa; Liquid
row,viscosity [mPa·s],SMILES
1,3001.1 ± 670,CCCCCCn1cc[n+](CCC#N)c1.O=C([O-])c1cccc(S(=O)(=O)O)c1 [3-(2-cyanoethyl)-1-hexyl-1H-imidazolium 3-sulfobenzoate]

# Same assay, conditions: 313.15 K; 101.33 kPa; Liquid; Vibrating tube method
row,SMILES,mass density [kg/m3]
1,CCCCCCn1cc[n+](CCC#N)c1.O=S(=O)([O-])c1ccccc1 [3-(2-cyanoethyl)-1-hexyl-1H-imidazolium benzenesulfonate],1212.8 ± 2.5
2,CCCCCCn1cc[n+](CCC#N)c1.O=C([O-])c1cccc(S(=O)(=O)O)c1 [3-(2-cyanoethyl)-1-hexyl-1H-imidazolium 3-sulfobenzoate],1234.7 ± 3.6

# Second part, the compound after the results:
row,mass density [kg/m3],SMILES
1,1274.6 ± 4.5,CCCCCCn1cc[n+](CCC#N)c1.O=S(=O)([O-])C(F)(F)F
2,1088 ± 2.3,CCCCCCCCCCCCOS(=O)(=O)[O-].CCCCCCn1cc[n+](CCC#N)c1 [3-(2-cyanoethyl)-1-hexyl-1H-imidazolium dodecyl sulfate]
3,1078.3 ± 2.5,CCCCC(CC)COC(=O)CC(C(=O)OCC(CC)CCCC)S(=O)(=O)[O-].CCCCCC[n+]1ccn(CCC#N)c1 (configuration not stated)

# Same assay, conditions: 318.15 K; 101.33 kPa; Liquid
row,SMILES,viscosity [mPa·s]
1,CCCCCCn1cc[n+](CCC#N)c1.O=S(=O)([O-])c1ccccc1 [3-(2-cyanoethyl)-1-hexyl-1H-imidazolium benzenesulfonate],781.3 ± 120
2,CCCCCCn1cc[n+](CCC#N)c1.O=C([O-])c1cccc(S(=O)(=O)O)c1 [3-(2-cyanoethyl)-1-hexyl-1H-imidazolium 3-sulfobenzoate],1953.3 ± 390

# Second part, the compound after the results:
row,viscosity [mPa·s],SMILES
1,301.9 ± 30,CCCCCCn1cc[n+](CCC#N)c1.O=S(=O)([O-])C(F)(F)F
2,2051 ± 410,CCCCCCCCCCCCOS(=O)(=O)[O-].CCCCCCn1cc[n+](CCC#N)c1 [3-(2-cyanoethyl)-1-hexyl-1H-imidazolium dodecyl sulfate]
3,2939.5 ± 650,CCCCC(CC)COC(=O)CC(C(=O)OCC(CC)CCCC)S(=O)(=O)[O-].CCCCCC[n+]1ccn(CCC#N)c1 (configuration not stated)

# Same assay, conditions: 318.15 K; 101.33 kPa; Liquid; Vibrating tube method
row,SMILES,mass density [kg/m3]
1,CCCCCCn1cc[n+](CCC#N)c1.O=S(=O)([O-])c1ccccc1 [3-(2-cyanoethyl)-1-hexyl-1H-imidazolium benzenesulfonate],1209.6 ± 2.5
2,CCCCCCn1cc[n+](CCC#N)c1.O=C([O-])c1cccc(S(=O)(=O)O)c1 [3-(2-cyanoethyl)-1-hexyl-1H-imidazolium 3-sulfobenzoate],1231.5 ± 3.5

# Second part, the compound after the results:
row,mass density [kg/m3],SMILES
1,1271 ± 4.5,CCCCCCn1cc[n+](CCC#N)c1.O=S(=O)([O-])C(F)(F)F
2,1084.7 ± 2.3,CCCCCCCCCCCCOS(=O)(=O)[O-].CCCCCCn1cc[n+](CCC#N)c1 [3-(2-cyanoethyl)-1-hexyl-1H-imidazolium dodecyl sulfate]
3,1074.8 ± 2.5,CCCCC(CC)COC(=O)CC(C(=O)OCC(CC)CCCC)S(=O)(=O)[O-].CCCCCC[n+]1ccn(CCC#N)c1 (configuration not stated)

# Same assay, conditions: 323.15 K; 101.33 kPa; Liquid
row,SMILES,viscosity [mPa·s]
1,CCCCCCn1cc[n+](CCC#N)c1.O=S(=O)([O-])c1ccccc1 [3-(2-cyanoethyl)-1-hexyl-1H-imidazolium benzenesulfonate],537.6 ± 70
2,CCCCCCn1cc[n+](CCC#N)c1.O=C([O-])c1cccc(S(=O)(=O)O)c1 [3-(2-cyanoethyl)-1-hexyl-1H-imidazolium 3-sulfobenzoate],1189.9 ± 210

# Other lines, results leading:
row,viscosity [mPa·s],SMILES
1,214 ± 18,CCCCCCn1cc[n+](CCC#N)c1.O=S(=O)([O-])C(F)(F)F
2,1301.8 ± 230,CCCCCCCCCCCCOS(=O)(=O)[O-].CCCCCCn1cc[n+](CCC#N)c1 [3-(2-cyanoethyl)-1-hexyl-1H-imidazolium dodecyl sulfate]
3,1947.7 ± 390,CCCCC(CC)COC(=O)CC(C(=O)OCC(CC)CCCC)S(=O)(=O)[O-].CCCCCC[n+]1ccn(CCC#N)c1 (configuration not stated)

# Same assay, conditions: 323.15 K; 101.33 kPa; Liquid; Vibrating tube method
row,SMILES,mass density [kg/m3]
1,CCCCCCn1cc[n+](CCC#N)c1.O=S(=O)([O-])c1ccccc1 [3-(2-cyanoethyl)-1-hexyl-1H-imidazolium benzenesulfonate],1206.3 ± 2.5
2,CCCCCCn1cc[n+](CCC#N)c1.O=C([O-])c1cccc(S(=O)(=O)O)c1 [3-(2-cyanoethyl)-1-hexyl-1H-imidazolium 3-sulfobenzoate],1228.2 ± 3.5

# Now from value to compound:
row,mass density [kg/m3],SMILES
1,1267.4 ± 4.5,CCCCCCn1cc[n+](CCC#N)c1.O=S(=O)([O-])C(F)(F)F
2,1081.5 ± 2.3,CCCCCCCCCCCCOS(=O)(=O)[O-].CCCCCCn1cc[n+](CCC#N)c1 [3-(2-cyanoethyl)-1-hexyl-1H-imidazolium dodecyl sulfate]
3,1071.3 ± 2.5,CCCCC(CC)COC(=O)CC(C(=O)OCC(CC)CCCC)S(=O)(=O)[O-].CCCCCC[n+]1ccn(CCC#N)c1 (configuration not stated)

# Same assay, conditions: 328.15 K; 101.33 kPa; Liquid
row,SMILES,viscosity [mPa·s]
1,CCCCCCn1cc[n+](CCC#N)c1.O=S(=O)([O-])c1ccccc1 [3-(2-cyanoethyl)-1-hexyl-1H-imidazolium benzenesulfonate],359.9 ± 39
2,CCCCCCn1cc[n+](CCC#N)c1.O=C([O-])c1cccc(S(=O)(=O)O)c1 [3-(2-cyanoethyl)-1-hexyl-1H-imidazolium 3-sulfobenzoate],830.5 ± 130

# Next, values leading:
row,viscosity [mPa·s],SMILES
1,155.1 ± 10,CCCCCCn1cc[n+](CCC#N)c1.O=S(=O)([O-])C(F)(F)F
2,846.3 ± 130,CCCCCCCCCCCCOS(=O)(=O)[O-].CCCCCCn1cc[n+](CCC#N)c1 [3-(2-cyanoethyl)-1-hexyl-1H-imidazolium dodecyl sulfate]
3,1264.7 ± 220,CCCCC(CC)COC(=O)CC(C(=O)OCC(CC)CCCC)S(=O)(=O)[O-].CCCCCC[n+]1ccn(CCC#N)c1 (configuration not stated)

# Same assay, conditions: 328.15 K; 101.33 kPa; Liquid; Vibrating tube method
row,SMILES,mass density [kg/m3]
1,CCCCCCn1cc[n+](CCC#N)c1.O=S(=O)([O-])c1ccccc1 [3-(2-cyanoethyl)-1-hexyl-1H-imidazolium benzenesulfonate],1203 ± 2.4
2,CCCCCCn1cc[n+](CCC#N)c1.O=C([O-])c1cccc(S(=O)(=O)O)c1 [3-(2-cyanoethyl)-1-hexyl-1H-imidazolium 3-sulfobenzoate],1225 ± 3.5

# Second part, the compound after the results:
row,mass density [kg/m3],SMILES
1,1263.8 ± 4.5,CCCCCCn1cc[n+](CCC#N)c1.O=S(=O)([O-])C(F)(F)F
2,1078.3 ± 2.3,CCCCCCCCCCCCOS(=O)(=O)[O-].CCCCCCn1cc[n+](CCC#N)c1 [3-(2-cyanoethyl)-1-hexyl-1H-imidazolium dodecyl sulfate]
3,1067.9 ± 2.5,CCCCC(CC)COC(=O)CC(C(=O)OCC(CC)CCCC)S(=O)(=O)[O-].CCCCCC[n+]1ccn(CCC#N)c1 (configuration not stated)

# Same assay, conditions: 333.15 K; 101.33 kPa; Liquid
row,SMILES,viscosity [mPa·s]
1,CCCCCCn1cc[n+](CCC#N)c1.O=S(=O)([O-])c1ccccc1 [3-(2-cyanoethyl)-1-hexyl-1H-imidazolium benzenesulfonate],274.2 ± 26
2,CCCCCCn1cc[n+](CCC#N)c1.O=C([O-])c1cccc(S(=O)(=O)O)c1 [3-(2-cyanoethyl)-1-hexyl-1H-imidazolium 3-sulfobenzoate],557.3 ± 74

# Next, values leading:
row,viscosity [mPa·s],SMILES
1,102.7 ± 4.7,CCCCCCn1cc[n+](CCC#N)c1.O=S(=O)([O-])C(F)(F)F
2,566.9 ± 75,CCCCCCCCCCCCOS(=O)(=O)[O-].CCCCCCn1cc[n+](CCC#N)c1 [3-(2-cyanoethyl)-1-hexyl-1H-imidazolium dodecyl sulfate]
3,848.3 ± 130,CCCCC(CC)COC(=O)CC(C(=O)OCC(CC)CCCC)S(=O)(=O)[O-].CCCCCC[n+]1ccn(CCC#N)c1 (configuration not stated)

# Same assay, conditions: 333.15 K; 101.33 kPa; Liquid; Vibrating tube method
row,mass density [kg/m3],SMILES
1,1260.2 ± 4.4,CCCCCCn1cc[n+](CCC#N)c1.O=S(=O)([O-])C(F)(F)F
